The test system of this test is T1, Bgl3HB.
T1 construct: pPICZalphaA (alpha-factor secretion) in Komagataella phaffii X33; by primers starts MVNNAA and ends QIQDATP plus C-terminal His6; GH3, GH3-C and Fn3-like domains
As to the kind of experiment: pNP release, OD400, Lineweaver-Burk. The settings on record: pH 4.0, 50 °C, 10 min. The class given is biochemical, Trichoderma harzianum. From the text:
pNP release, OD400, Lineweaver-Burk on Bgl3HB

From PMC9331182, “Characterization of a novel recombinant halophilic β-glucosidase of Trichoderma harzianum derived from Hainan mangrove” (BMC Microbiology, 2022) come the findings set out here.

What is called Km is the concentration of substrate that gives half-maximal velocity.

Turning to `O=[N+]([O-])c1ccc(O[C@@H]2O[C@H](CO)[C@@H](O)[C@H](O)[C@H]2O)cc1` [pNPG], the Km was determined as 1220 µM.
